Holding throughout (test): growth of human tumour cells (NCI), 48 h
The test system of assay [1] is SK-MEL-2 melanoma.
Assay [2] has as its system SK-OV-3 ovarian.
For assay [3], the system named is OVCAR-4 ovarian.
The test system of assay [4] is 786-0 renal.
For assay [5], the system named is HT29 colon.
Assay [6] has as its system SNB-75 CNS.
Assay [7] concerns UO-31 renal.
Assay [8] concerns SN12C renal.
The test system of assay [9] is K-562 leukemia.
The test system of assay [10] is HOP-92 NSCLC.

Values joined by “and” are separate entries in the source; they are usually repeats but may differ in a detail not shown here. Equal entries are not always repeated.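 1) Cells in 96-well plates. 2) Compound, 48 h, 5 concentrations. 3) Linear interpolation between surrounding doses. 4) Unreached endpoint = highest concentration. GI50 = concentration required for 50% inhibition of growth. The concentration for full growth arrest is given as TGI.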

Consider `CCn1c(-c2nonc2N)nc2ccccc21`, for which the GI50 in assay [1], in [2], in [3], in [4], in assay [5] and in [6] was > 25 µM each time. Moreover, the GI50 in assay [7] was > 25 µM; in [8], > 25 µM; in assay [9], > 25 µM; in assay [10], 17 µM. The TGI in assay [1], in [2], in [3], in assay [4], in assay [5] and in [6] was > 25 µM throughout. Moreover, the TGI in [7], in assay [8], in assay [9] and in assay [10] was > 25 µM in each case.
Regarding `NNc1c(C(N)=O)c2c(N)ncnc2n1C1OC(CO)C(O)C1O` (stereo not drawn), the GI50 in assay [1] is 0.0273 µM and 0.0256 µM; in assay [2], < 0.0137 µM and 0.0273 µM; in [3], < 0.0105 µM; in [4], 0.0354 µM and 0.107 µM; in assay [5] it was < 0.0118 µM; in assay [6] it was 0.106 µM. In addition, the GI50 in assay [7] is < 0.0143 µM and 0.0246 µM; in assay [8], 0.019 µM and 0.0443 µM; in assay [9], 0.0199 µM; in assay [10], 0.0285 µM and 0.0507 µM. The TGI in [1] is 0.0946 µM and 0.307 µM; in assay [2], 0.413 µM and 0.361 µM; in assay [3], 0.776 µM and 0.16 µM; in [4], 0.405 µM and 1.87 µM; in assay [6], 1.09 µM and 0.448 µM; in assay [7], 0.0959 µM and 0.454 µM. Besides, the TGI in [8] is 0.174 µM and 0.58 µM; in [9] it was 16.3 µM and > 100 µM; in assay [10] it was 0.347 µM and 0.333 µM.
As to `CC(C)(C)N/N=C(/Cc1nc2c3c(ccc2[nH]c1=O)C(=O)c1ccccc1C3=O)C(=O)NC1=C(Cl)C(=O)c2ccccc2C1=O`, the TGI in assay [1] was > 100 µM; in assay [2], > 100 µM; in assay [3], 61.6 µM; in assay [4], > 100 µM; in assay [5], 30 µM; in assay [6], 9.03 µM. In addition, the TGI in assay [7], in assay [8], in [9] and in assay [10] was > 100 µM in each case.
As for `CC(C)=C[C@@H]1C[C@H](C)[C@H]2CC[C@H](C)c3c(O)c(OC4OC(C)C(O)C(O)C4O)c(C)c1c32` (stereo partly drawn), the GI50 in assay [1] was 19.8 µM; in assay [2], 18.9 µM; in assay [3] it was 12.1 µM; in assay [4], 17.8 µM; in assay [5] it was 4.07 µM; in assay [6], 14.4 µM. For the same compound, the GI50 in assay [7] was 14.6 µM; in assay [8] it was 11.3 µM; in assay [9] it was 3.97 µM; in assay [10] it was 14.8 µM. For the same compound, the TGI was determined as 35.5 µM in assay [1]; 32.9 µM in [2]; 24.7 µM in assay [3]; 33 µM in assay [4]; 15.6 µM in assay [5]; 27.7 µM in [6]. Moreover, the TGI amounted to 27.8 µM in [7], 23.5 µM in assay [8], 19.6 µM in assay [9] and 28.5 µM in assay [10].
For the compound `CNC(=O)CCN1CCN(CC/C=C2\c3ccccc3Sc3ccc(Cl)cc32)CC1`, the GI50 in assay [1] is 14.1 µM; in assay [2], 16.4 µM; in assay [3], 13.2 µM; in [4] it was 12.1 µM; in assay [5], 3.11 µM; in [6], 7.43 µM. Also, the GI50 in assay [7] is 11.4 µM; in [8], 12.1 µM; in [9], 4.2 µM; in [10], 5.75 µM. Moreover, the TGI in assay [1] amounted to 32.4 µM; in assay [2], 31.2 µM; in assay [3], 28.2 µM; in assay [4] it was 27.4 µM; in assay [5], 12.4 µM; in assay [6], 23.1 µM. Further, the TGI in [7] was 27.4 µM; in assay [8], 26.6 µM; in [9], > 37.1 µM; in [10] it was 27 µM.
With `COc1ccc(/C=C/C(=O)c2c(-c3ccccc3)nn(C)c(=O)c2N2CC2C)cc1` (stereo not drawn), the TGI is 47.6 µM in assay [1]; 71.3 µM in assay [2]; 84 µM in assay [3]; > 100 µM in [4]; > 100 µM in assay [5]; 73.9 µM in assay [6]. In addition, the TGI in assay [7], in [8], in assay [9] and in assay [10] was > 100 µM each time.
Consider `COc1cccc(/C=C2\N=C(c3ccccc3)OC2=O)c1`, for which the TGI is > 100 µM in assay [1]; > 100 µM in [2]; > 100 µM in [3]; > 100 µM in assay [4]; > 100 µM in assay [5]; 77.1 µM in assay [6]. Further, the TGI in assay [7], in assay [8], in assay [9] and in assay [10] was > 100 µM throughout.
For the compound `[O]=[Sn]([CH]1CCCCC1)[CH]1CCCCC1`, the GI50 in assay [1] is 0.108 µM; in assay [2], 1.2 µM; in [3], 0.342 µM; in assay [4], 0.214 µM; in [5], 0.298 µM; in [6], 0.158 µM. Also, the GI50 is 0.293 µM in assay [7], 0.315 µM in assay [8], 0.117 µM in assay [9] and 0.251 µM in [10]. For the same compound, the TGI in assay [1] was found to be 0.284 µM; in assay [2], 2.52 µM; in [3], 1.46 µM; in assay [4], 0.456 µM; in assay [5], 0.866 µM; in [6] it was 0.562 µM. Moreover, the TGI worked out at 1.08 µM in assay [7], 1.23 µM in [8] and 1.2 µM in [10].
Take `CC[C@H](C)[C@H](NC(=O)C12C3C4C1C1C2C3C41NC)C(=O)N(C)[C@H](C[C@@H](OC(C)=O)c1nc(C(=O)N[C@@H](Cc2ccccc2)C[C@H](C)C(=O)OC)cs1)C(C)C` (stereo partly drawn): the GI50 in assay [1] is 0.223 µM; in assay [2], 0.698 µM; in [3] it was 1.75 µM; in [4] it was 0.76 µM; in assay [5], 0.29 µM; in [6] it was 0.319 µM. The GI50 was 4.16 µM in assay [7], 0.896 µM in assay [8], 0.219 µM in assay [9] and > 6.28 µM in [10]. Further, the TGI is > 14.3 µM in assay [1]; > 14.3 µM in assay [2]; > 14.3 µM in assay [3]; > 14.3 µM in assay [4]; > 4.78 µM in [5]; > 14.3 µM in [6]. In addition, the TGI in assay [7], in assay [8], in assay [9] and in assay [10] was > 14.3 µM throughout.

The values above are taken from PubChem BioAssay (NCI).
